Assay results: article PMC10113987, “A tool for nuclear imaging of the SARS-CoV-2 entry receptor: molecular model and preclinical development of ACE2-selective radiopeptides” (EJNMMI Research, 2023)
Where two headings read alike, the source gives them in different places. Positions of bridges follow the written chain, without caps; N, C: chain ends. Residues, ends and D or L forms follow the SMILES beside them. *: point of attachment. DOTA = O=C(O)CN1CCN(CC(=O)O)CCN(CC(=O)*)CCN(CC(=O)O)CC1; NODAGA = O=C(O)CN1CCN(CC(=O)O)CCN(C(CCC(=O)*)C(=O)O)CC1; Ahx = NCCCCCC(=O)O

Key:
[1] = test system: HEK-ACE2/HEK-ACE-xenografted mice; assay: SPECT/CT imaging and quantification of retained activity in HEK-ACE2/HEK-ACE xenografted mice; format: in vivo, mouse; conditions: for Activity retained in the kidneys relative to the 1 h p.i.-timepoint: SPECT/CT quantification, non-decay-corrected
Procedure: (§1) All applicable international, national, and/or institutional guidelines for the care and use of animals were followed. In particular, all animal experiments were carried out according to the guidelines of the Swiss Regulations for Animal Welfare. Preclinical studies have been ethically approved by the Cantonal Committee of Animal Experimentation and permitted by the responsible cantonal authorities (License N° 75743). Five-week-old female CD1/nude mice and female immunocompetent FVB mice were obtained from Charles River Laboratories (Sulzfeld, Germany) and fed with standard rodent chow ad libitum. CD1/nude were subcutaneously inoculated with HEK-ACE2 cells (6–8 × 10^6 cells in 100 µL PBS) on the right shoulder and approximately one week later with HEK-ACE (4 × 10^6 cells in 100 µL PBS) on the left shoulder. Imaging and biodistribution studies were performed 2–4 weeks later when the xenografts reached a size of 100–300 mm^3.
SPECT/CT imaging was performed using a four-head, multiplexing, multipinhole small-animal SPECT camera (NanoSPECT/CT™, Mediso Medical Imaging Systems, Budapest, Hungary). Each head was outfitted with a tungsten-based aperture of nine 1.4 mm-diameter pinholes and a thickness of 10 mm. CT scans of 7.5 min duration were followed by SPECT scans of ~ 50 min performed 1 h, 3 h and 24 h after injection of the respective radiopeptide (10 MBq, 0.5 nmol, 100 μL), diluted in NaCl 0.9% containing 0.05% BSA. During the scan, mice were anesthetized with a mixture of isoflurane and oxygen. The images were acquired using Nucline software (version 1.02, Mediso Ltd., Budapest, Hungary). The real-time CT reconstruction used a cone-beam-filtered backprojection. The reconstruction of SPECT data was performed with the HiSPECT software (version 1.4.3049, Scivis GmbH, Göttingen, Germany) using γ-energies of 93.20 keV (± 10%), 184.60 keV (± 10%) and 300.00 keV (± 10%) for gallium-67. All images were prepared using the VivoQuant post-processing software (version 3.0, inviCRO Imaging Services and Software, Boston, US). A Gauss post-reconstruction filter (full width at half maximum, 1 mm) was applied, and the scale of activity for gallium-67 was set as indicated on the SPECT/CT images. In order to estimate the wash-out of the DX600-based radiopeptides from the HEK-ACE2 xenografts and kidneys over time, the absolute amount of activity was determined in these tissues using the VivoQuant quantification tool. The accumulated activity (non-decay-corrected value in MBq) in the xenografts and kidneys, respectively, obtained at the 1 h p.i. timepoint was set as 100%. The percentage of activity retained in these tissues was determined at 3 h and 24 h p.i. based on the absolute activity determined at these timepoints.

[2] = test system: HEK-ACE2/HEK-ACE-xenografted mice; assay: Biodistribution in HEK-ACE2/HEK-ACE xenografted mice; format: in vivo, mouse; conditions: for HEK-ACE2 xenograft-to-kidney ratio: 3 h after injection
Procedure: as §1
(§2) Biodistribution studies in xenograft-bearing mice were performed 2–4 weeks after cell inoculation. Mice were intravenously injected with [^67Ga]Ga-DOTA-DX600, [^67Ga]Ga-NODAGA-DX600, [^67Ga]Ga-HBED-CC-DX600 or [^67Ga]Ga-DOTA-BPP9a (3 MBq, 0.5 nmol, 100 µL) diluted in NaCl 0.9% containing 0.05% BSA. The mice were sacrificed 3 h after administration of the radiopeptides. Selected tissues and organs were collected, weighed and counted using a γ-counter. The results were listed as a percentage of the injected activity per gram of tissue mass (% IA/g), using counts of a defined volume of the original injection solution measured simultaneously, resulting in decay-corrected values. Statistical analysis was performed by applying a one‐way ANOVA test with a Tukey’s multiple comparisons post‐test (GraphPad Prism software, version 8.3.1).

[3] = as above; format: in vivo, mouse; conditions: female, CD1/nude, mouse, iv, 0.5 nmol, total radioactivity, 3 h after i.v. injection, decay-corrected, n = 3
Procedure: as §1, §2

[4] = In vitro stability in human blood plasma (TLC); format: in vitro ADME; conditions: 37 °C
Procedure: The ^67Ga-labeled DX600-radiopeptides (20 MBq/nmol) were incubated in human and mouse plasma (10 MBq/200 µL), respectively, at 37 °C. Aliquots were taken at variable time points up to 24 h for analysis using reversed phase thin layer chromatography (TLC) with citrate buffer (0.1 M, pH 5.5) as a mobile phase. Images of the TLC plates were obtained using a storage phosphor system (Cyclone Plus, PerkinElmer) and quantified using the OptiQuant software (version 5.0, Bright Instrument Co Ltd., PerkinElmer™) (Supplementary Information).
The radiopeptides were prepared and TLC experiments were performed immediately after radiolabeling by applying the diluted radiopeptides in saline (1 µL; ~0.05 MBq) and [^67Ga]GaCl3 solution (1 µL; ~0.05 MBq) on the TLC plates. The radiopeptides were incubated in mouse or human plasma (10 MBq/200 µL) at 37° C. TLC was performed with an aliquot of the plasma samples at the given timepoints (30 min, 1 h, 3 h and 24 h). The TLC plates were exposed to a phosphor screen followed by development using a storage phosphor system (Cyclone Plus, PerkinElmer). The quantification of the signals was carried out using the OptiQuant software (version 5.0, Bright Instrument Co Ltd., PerkinElmer^TM). The obtained chromatograms were analyzed by determination of the peak area of the radiolabeled peptide, the released gallium-67 as well as degradation products of unknown structure. The quantity of the intact product was expressed as percentage of the sum of integrated peak areas of the entire chromatogram.

[5] = 3 h after i.v. injection, decay-corrected, n = 3
[6] = HEK-ACE xenograft, read-out: Biodistribution: ACE xenograft (HEK-ACE)
[7] = blood, read-out: Biodistribution: blood
[8] = bone, read-out: Biodistribution: bone
[9] = heart, read-out: Biodistribution: heart
[10] = intestines, read-out: Biodistribution: intestines
[11] = kidneys, read-out: Biodistribution: kidneys (renal retention)
[12] = liver, read-out: Biodistribution: liver
[13] = lung, read-out: Biodistribution: lung
[14] = muscle, read-out: Biodistribution: muscle
[15] = salivary glands, read-out: Biodistribution: salivary glands
[16] = spleen, read-out: Biodistribution: spleen
[17] = stomach, read-out: Biodistribution: stomach
[18] = HEK-ACE2 xenograft, read-out: Biodistribution: ACE2 xenograft (HEK-ACE2)

Which results are given for `CC[C@H](C)[C@H](NC(=O)[C@H](CCC(N)=O)NC(=O)[C@@H]1CCCN1C(=O)[C@H](CCCNC(=N)N)NC(=O)[C@@H]1CCCN1C(=O)[C@H](Cc1c[nH]c2ccccc12)NC(=O)[C@H](CCC(=O)O)NC(=O)CCCCCNC(=O)CCCCCNC(=O)CN1CCN(CC(=O)O)CCN(CC(=O)O)CCN(CC(=O)O)CC1)C(=O)N1CCC[C@H]1C(=O)N1CCC[C@H]1C(=O)O` [[^67Ga]Ga-DOTA-BPP9a, metal not drawn] ({DOTA-Ahx-Ahx}-EWPRPQIPP-OH)?
Uptake in HEK-ACE2 xenografts on SPECT/CT images ([1]; 1 h and 3 h after injection): no uptake; Uptake in HEK-ACE xenografts on SPECT/CT images ([1]; 1 h and 3 h after injection): accumulation; Biodistribution: ACE2 xenograft (HEK-ACE2) [2, 5]: < 0.5 % IA/g; Biodistribution: ACE2 xenograft (HEK-ACE2) ([2]; 3 h after i.v. injection, decay-corrected, n = 3, listed as [^67Ga]Ga-DOTA- BPP9a): 0.19 ± 0.19 % IA/g; tissue uptake at 3 h [3, 6]: 3.17 ± 0.29 %ID/g; tissue uptake at 3 h [3, 7]: 0.05 ± 0.01 %ID/g; tissue uptake at 3 h [3, 8]: 0.04 ± 0.01 %ID/g; tissue uptake at 3 h [3, 9]: 0.03 %ID/g; tissue uptake at 3 h [3, 10]: 0.06 ± 0.02 %ID/g; tissue uptake at 3 h [3, 11]: 3.22 ± 0.8 %ID/g; tissue uptake at 3 h [3, 12]: 0.09 ± 0.01 %ID/g; tissue uptake at 3 h [3, 13]: 0.13 ± 0.03 %ID/g; tissue uptake at 3 h [3, 14]: 0.02 ± 0.01 %ID/g; tissue uptake at 3 h [3, 15]: 0.04 ± 0.01 %ID/g; tissue uptake at 3 h [3, 16]: 0.08 ± 0.04 %ID/g; tissue uptake at 3 h [3, 17]: 0.06 ± 0.05 %ID/g

What does the source list for `CC(=O)N[C@@H](CCCCNC(=O)CN1CCN(CC(=O)O)CCN(CC(=O)O)CCN(CC(=O)O)CC1)C(=O)NCC(=O)N[C@@H](CC(=O)O)C(=O)N[C@@H](Cc1ccc(O)cc1)C(=O)N[C@@H](CO)C(=O)N[C@@H](Cc1c[nH]cn1)C(=O)N[C@H]1CSSC[C@@H](C(=O)N[C@H](C(=O)N[C@@H](Cc2ccc(O)cc2)C(=O)N2CCC[C@H]2C(=O)N[C@@H](CC(=O)O)C(=O)N2CCC[C@H]2C(=O)N[C@@H](CCC(=O)O)C(=O)NCC(=O)NCC(=O)NCC(N)=O)[C@@H](C)O)NC(=O)[C@H](CCCCN)NC(=O)[C@H](Cc2c[nH]c3ccccc23)NC(=O)[C@H](Cc2c[nH]c3ccccc23)NC(=O)[C@@H]2CCCN2C(=O)[C@H](Cc2ccc(O)cc2)NC(=O)[C@H](Cc2ccc(O)cc2)NC(=O)[C@H](CCCNC(=N)N)NC(=O)[C@H](CC(C)C)NC(=O)[C@@H]2CCCN2C(=O)[C@H](CO)NC1=O` [[^67Ga]Ga-DOTA-DX600, metal not drawn] (Ac-K(DOTA)GDYSHCSPLRYYPWWKCTYPDPEGGG-NH2; disulfide 7-18)?
Activity retained in the kidneys relative to the 1 h p.i.-timepoint ([1]; 3 h p.i.): ~ 85%; Activity retained in the kidneys relative to the 1 h p.i.-timepoint ([1]; 24 h p.i.): 35–45%; Biodistribution: ACE xenograft (HEK-ACE) [2, 5]: 0.32 ± 0.18 % IA/g; HEK-ACE2 xenograft-to-kidney ratio [2]: 0.45 ± 0.02; tissue uptake at 3 h [3, 18]: 10.7 ± 0.4 %ID/g; tissue uptake at 3 h [3, 6]: < 0.5 %ID/g; tissue uptake at 3 h [3, 7]: 0.06 ± 0.01 %ID/g; tissue uptake at 3 h [3, 8]: 0.06 ± 0.01 %ID/g; tissue uptake at 3 h [3, 9]: 0.04 ± 0.01 %ID/g; tissue uptake at 3 h [3, 10]: 0.09 ± 0.04 %ID/g; tissue uptake at 3 h [3, 11]: ~24 %ID/g; tissue uptake at 3 h [3, 12]: 0.22 ± 0.01 %ID/g; tissue uptake at 3 h [3, 13]: 0.14 ± 0.06 %ID/g; tissue uptake at 3 h [3, 14]: 0.02 %ID/g; tissue uptake at 3 h [3, 15]: 0.05 ± 0.01 %ID/g; tissue uptake at 3 h [3, 16]: 0.09 ± 0.01 %ID/g; tissue uptake at 3 h [3, 17]: 0.04 ± 0.01 %ID/g; Released gallium-67 in human blood plasma ([4]; 24 h): > 30%

Which “Activity retained in the kidneys relative to the 1 h p.i.-timepoint” value ([1]; 3 h p.i.) does the source give for `CC(=O)N[C@@H](CCCCNC(=O)CCC(C(=O)O)N1CCN(CC(=O)O)CCN(CC(=O)O)CC1)C(=O)NCC(=O)N[C@@H](CC(=O)O)C(=O)N[C@@H](Cc1ccc(O)cc1)C(=O)N[C@@H](CO)C(=O)N[C@@H](Cc1c[nH]cn1)C(=O)N[C@H]1CSSC[C@@H](C(=O)N[C@H](C(=O)N[C@@H](Cc2ccc(O)cc2)C(=O)N2CCC[C@H]2C(=O)N[C@@H](CC(=O)O)C(=O)N2CCC[C@H]2C(=O)N[C@@H](CCC(=O)O)C(=O)NCC(=O)NCC(=O)NCC(N)=O)[C@@H](C)O)NC(=O)[C@H](CCCCN)NC(=O)[C@H](Cc2c[nH]c3ccccc23)NC(=O)[C@H](Cc2c[nH]c3ccccc23)NC(=O)[C@@H]2CCCN2C(=O)[C@H](Cc2ccc(O)cc2)NC(=O)[C@H](Cc2ccc(O)cc2)NC(=O)[C@H](CCCNC(=N)N)NC(=O)[C@H](CC(C)C)NC(=O)[C@@H]2CCCN2C(=O)[C@H](CO)NC1=O` (some centres unmarked) [[^67Ga]Ga-NODAGA-DX600, metal not drawn] (Ac-K(NODAGA)GDYSHCSPLRYYPWWKCTYPDPEGGG-NH2; disulfide 7-18) here?
Its value is ~ 85%.

What about the “Activity retained in the kidneys relative to the 1 h p.i.-timepoint” value ([1]; 24 h p.i.) of the same molecule?
Its value is 35–45%.

And the HEK-ACE2 xenograft-to-kidney ratio [2]?
The HEK-ACE2 xenograft-to-kidney ratio was 0.67 ± 0.16.

And the tissue uptake at 3 h [3, 18]?
The tissue uptake at 3 h was 15.5 ± 2.2 %ID/g.

What about the tissue uptake at 3 h [3, 7] of the same molecule?
The tissue uptake at 3 h was 0.02 ± 0.01 %ID/g.

What about the tissue uptake at 3 h [3, 8] of the same molecule?
Its tissue uptake at 3 h is 0.04 ± 0.01 %ID/g.

What about the tissue uptake at 3 h [3, 9] of the same molecule?
Its tissue uptake at 3 h is 0.04 ± 0.01 %ID/g.

What about the tissue uptake at 3 h [3, 10] of the same molecule?
The tissue uptake at 3 h was 0.13 ± 0.07 %ID/g.

And the tissue uptake at 3 h [3, 11]?
The tissue uptake at 3 h was ~24 %ID/g.

And the tissue uptake at 3 h [3, 12]?
The tissue uptake at 3 h was 0.25 ± 0.04 %ID/g.

And the tissue uptake at 3 h [3, 13]?
The tissue uptake at 3 h was 0.08 ± 0.01 %ID/g.

And the tissue uptake at 3 h [3, 14]?
Its tissue uptake at 3 h is 0.02 ± 0.01 %ID/g.

What about the tissue uptake at 3 h [3, 15] of the same molecule?
The tissue uptake at 3 h was 0.05 ± 0.01 %ID/g.

And the tissue uptake at 3 h [3, 16]?
Its tissue uptake at 3 h is 0.08 ± 0.01 %ID/g.

What about the tissue uptake at 3 h [3, 17] of the same molecule?
Its tissue uptake at 3 h is 0.06 ± 0.03 %ID/g.

And the “Intact radiopeptide in human blood plasma” value ([4]; whole incubation period of 24 h)?
Its value is > 99%.
